Source: patent EP0157361A2, “Analysis method and means for detecting esterolytic and or proteolytic enzymes” (MILES INC., priority 1984, dated 1985)
“Also recorded” adds a separate entry of the source.

Tests used:
Assay type in all cases: biochemical
Leukozyten-Enzyme [1] = test: Acceleration of cleavage of N-Tosyl-L-alanin-3-hydroxy-5-phenylpyrrolester by leukocytes (photometric, 330 nm); conditions: 250 µl N-Methylpyrrolidon
Protocol: (§1) Zu 2.25 ml des betreffenden Puffers fügte man je nach Substrat 50 - 250 µl N-Methylpyrrolidon als Lösungsvermittler und ergänzte das Volumen der Lösung mit Puffer auf 2.5 ml. Dann wurden 5 µl einer Lösung von 5 - 100 mg n-Undecanol in 1 ml N-Methylpyrrolidon sowie 5 µl einer Lösung von 2 mg Natriumdodecylsulfat (SDS) bzw. 4 mg der anderen Detergentien in 1 ml Wasser oder N-Methylpyrrolidon zu der Reaktionsmischung zugegeben. Nach gutem Durchmischen wurden 5 µl einer 10-1 molaren Substratlösung in N-Methylpyrrolidon, Dimethylformamid oder Dimethylsulfoxid in die Reaktionslösung gegeben und nach der Zugabe der Leukozytensuspension der Extinktionsanstieg bei der angegebenen Wellenlänge kontinuierlich verfolgt. Die Spontanhydrolyse des Substrats wird in einem Paralellansatz ohne Leukozytenzugabe anhand des Extinktionsanstiegs bestimmt.
(§2) Für die Bestimmung der Umsetzungsgeschwindigkeit wird der in der Enzymreaktion erhaltene Extinktionsanstieg um den für die Spontanhydrolyse ermittelten Betrag vermindert. Absolutwerte für die Substratspaltung (Mol. Min.^-1) können aus den Extinktionsdifferenzen mit Hilfe der molaren Extinktionskoeffizienten errechnet werden.
Beschleunigung der Spaltung von N-Tosyl-L-alanin-3-hydroxy-5-phenylpyrrolester mit Leukozyten in 0.1 M Tris-(hydroxymethyl)-aminomethan-Salzsäurepuffer (pH 8.8) in Gegenwart von 250 µl N-Methylpyrrolidon durch Zusätze von Aktivatoren und Detergentien.
Beschleunigung der Spaltung von N-Tosyl-L-alanin-3-hydroxy-5-phenylpyrrolester mit Leukozyten in diversen 0.1 M. Puffern (pH 8.4) unter Zusatz von 250 µl N-Methylpyrrolidon und Aktivatoren sowie Detergentien.

Leukozyten-Enzyme [2] = test: Acceleration of enzymatic cleavage of N-Tosyl-L-alanin-indoxylester by leukocytes (photometric, 360 nm); conditions: for relative Spaltungsgeschwindigkeit: 0.1 M Tris-HCl buffer pH 8.8, 360 nm; for rel.Geschwindigk.der Enzymreaktion, bezogen auf Decanol (0,125 µl/Test) = 1: 50 µl N-Methylpyrrolidon, SDS 10 µg/Test, Tris-HCl pH 8.8
Protocol: as §1, §2
Beschleunigende Wirkung von Alkanolen auf die enzymatische Spaltung von N-Tosyl-L-alanin-indoxylester mit Leukozyten in 0.1 M Tris-(hydroxymethyl)-aminomethan-Salzsäure-Puffer pH 8.8 unter Zusatz von SDS bzw. Polylysin mit einem mittleren Molekulargewicht von 14 000 (Messung bei 360 nm).
Konzentrationsabhängigkeit der beschleunigenden Wirkung von n-Undecanol auf die Spaltung von N-Tosyl-L-alanin-indoxylester mit Leukozyten in Gegenwart von 50 µl N-Methylpyrrolidon/Testansatz und 10 µg/Test SDS in 0.1 M Tris-(hydroxymethyl)-aminomethan-Salzsäurepuffer (pH 8.8).

Leukozyten-Enzyme [3] = test: Acceleration of cleavage of N-Tosyl-L-alanin-5-hydroxy-1,2-benzisothiazolylester by leukocytes (photometric, 325 nm); conditions: Aktivator 125 µg/Test, Tris-HCl pH 8.4, 100 µl N-Methylpyrrolidon
Protocol: as §1, §2
Beschleunigung der Spaltung von N-Tosyl-L-alanin-5-hydroxy-1,2-benzisothiazolylester mit Leukozyten in 0.1 M Tris-(hydroxymethyl)-aminomethan-Salzsäurepuffer (pH 8.4) in Gegenwart von 100 µl N-Methylpyrrolidon durch Zusätze von Aktivatoren und Detergentien.

Leukozyten-Enzyme [4] = test: Activation of leukocyte enzymes, general statement in the description; conditions: statement in words; compared with Hexanol, Heptanol, Octanol, Nonanol, Decanol, Dodecanol, Tridecanol of EP-A 14 929
Protocol: as §1, §2

[5] = Detergens Poly-L-Lys (mean MW 14 000) 20 µg/Test
[6] = Aktivator 125 µg/Test, SDS 10 µg/Test, Tris-HCl pH 8.8
[7] = Aktivator 125 µg/Test, Zephirol 20 µg/Test, Tris-HCl pH 8.8
[8] = Puffer Borat 0.1 M pH 8.4, Aktivator 0.125 µl bzw. 125 µg je Test, SDS 10 µg/Test
[9] = Puffer Borat 0.1 M pH 8.4, Aktivator 0.125 µl bzw. 125 µg je Test, no detergent
[10] = Puffer Carbonat-Hydrogencarbonat 0.1 M pH 8.4, Aktivator 0.125 µl bzw. 125 µg je Test, SDS 10 µg/Test
[11] = Puffer Phosphat 0.1 M pH 8.4, Aktivator 0.125 µl bzw. 125 µg je Test, SDS 10 µg/Test
[12] = Puffer Tris 0.1 M pH 8.4, Aktivator 0.125 µl bzw. 125 µg je Test, BDTA 20 µg/Test
[13] = Puffer Tris 0.1 M pH 8.4, Aktivator 0.125 µl bzw. 125 µg je Test, Poly-L-Arg (40000) 20 µg/Test
[14] = Puffer Tris 0.1 M pH 8.4, Aktivator 0.125 µl bzw. 125 µg je Test, SDS 10 µg/Test
[15] = Puffer Tris 0.1 M pH 8.4, Aktivator 0.125 µl bzw. 125 µg je Test, no detergent

Row | relative Spaltungsgeschwindigkeit (Leukozyten-Enzyme [2]; [5]) | relative Spaltungsgeschwindigkeit (Leukozyten-Enzyme [2]; Detergens SDS 10 µg/Test) | relative Spaltungsgeschwindigkeit (Leukozyten-Enzyme [3]; Poly-L-Lys(14000) 20 µg/Test) | relative Spaltungsgeschwindigkeit (Leukozyten-Enzyme [3]; Poly-L-Orn(30000) 20 µg/Test) | relative Spaltungsgeschwindigkeit (Leukozyten-Enzyme [3]; SDS 10 µg/Test) | relative Spaltungsgeschwindigkeit (Leukozyten-Enzyme [3]; no detergent) | relative Spaltungsgeschwindigkeit (Leukozyten-Enzyme [1]; [6]) | relative Spaltungsgeschwindigkeit (Leukozyten-Enzyme [1]; [7]) | relative Spaltungsgeschwindigkeit (Leukozyten-Enzyme [1]; [8]) | relative Spaltungsgeschwindigkeit (Leukozyten-Enzyme [1]; [9]) | relative Spaltungsgeschwindigkeit (Leukozyten-Enzyme [1]; [10]) | relative Spaltungsgeschwindigkeit (Leukozyten-Enzyme [1]; [11]) | relative Spaltungsgeschwindigkeit (Leukozyten-Enzyme [1]; [12]) | relative Spaltungsgeschwindigkeit (Leukozyten-Enzyme [1]; [13]) | relative Spaltungsgeschwindigkeit (Leukozyten-Enzyme [1]; [14]) | relative Spaltungsgeschwindigkeit (Leukozyten-Enzyme [1]; [15]) | Compound | further results
1 | – | – | – | – | – | – | – | – | – | – | – | – | – | – | – | – | CCCCCCCCCCCCOS(=O)(=O)O [SDS, Natriumdodecylsulfat] | relative Spaltungsgeschwindigkeit (Leukozyten-Enzyme [1]; Puffer Borat 0.1 M pH 8.4, no activator, detergent SDS alone 10 µg/Test): 2.8; relative Spaltungsgeschwindigkeit (Leukozyten-Enzyme [1]; Puffer Tris 0.1 M pH 8.4, no activator, detergent SDS alone 10 µg/Test): 0.8
2 | 3.2 | 1 | 4.25 | 3.8 | 1.0 | 1.9 | 1.0 | 1.27 | 9.0 | 4.9 | 5.6 | 12.0 | 1.05 | 3.7 | 1 | 0.9 | CCCCCCCCCCO [n-Decanol] | relative Spaltungsgeschwindigkeit (Leukozyten-Enzyme [1]; Puffer Borat 0.1 M pH 8.4, Aktivator 0.125 µl bzw. 125 µg je Test, Poly-DL-Lys(37000) 20 µg/Test): 3.15
3 | – | 0.55 | – | – | – | – | – | – | 9.0 | – | – | – | – | – | – | – | CCCCCCCCCCCCO [n-Dodecanol] | –
4 | – | – | – | – | – | – | – | – | 3.0 | – | – | – | – | – | 0.6 | – | CCCCCCCCCO [n-Nonanol] | –
5 | – | 0.75 | – | – | – | – | – | – | – | – | – | – | – | – | – | – | CCCCCCCCCCCCCO [n-Tridecanol] | –
6 | 6.5 | 1.85 | 8.2 | 7.4 | 2.5 | 3.1 | 3.3 | 2.6 | 15.2 | 5.6 | 6.6 | 17.3 | 3.55 | 6.55 | 2.1 | 1.7 | CCCCCCCCCCCO [n-Undecanol] | rel.Geschwindigk.der Enzymreaktion, bezogen auf Decanol (0,125 µl/Test) = 1 (Leukozyten-Enzyme [2]; 0,2 µl Undecanol in test solution): 2,1; rel.Geschwindigk.der Enzymreaktion, bezogen auf Decanol (0,125 µl/Test) = 1 (Leukozyten-Enzyme [2]; 0,5 µl Undecanol in test solution): 3,1; rel.Geschwindigk.der Enzymreaktion, bezogen auf Decanol (0,125 µl/Test) = 1 (Leukozyten-Enzyme [2]; 0,25 µl Undecanol in test solution): 3,2; rel.Geschwindigk.der Enzymreaktion, bezogen auf Decanol (0,125 µl/Test) = 1 (Leukozyten-Enzyme [2]; 0,025 µl Undecanol in test solution): 0,65; rel.Geschwindigk.der Enzymreaktion, bezogen auf Decanol (0,125 µl/Test) = 1 (Leukozyten-Enzyme [2]; 0,075 µl Undecanol in test solution): 1,5; rel.Geschwindigk.der Enzymreaktion, bezogen auf Decanol (0,125 µl/Test) = 1 (Leukozyten-Enzyme [2]; 0,125 µl Undecanol in test solution): 1,75; Aktivierung der Leukozyten-Enzyme (Leukozyten-Enzyme [4]): stark aktiviert; also recorded: alle vorgenannten Alkohole in der Aktivierung der Leukozyten- Enzyme übertrifft
